Values joined by “and” are separate entries in the source; they are usually repeats but may differ in a detail not shown here. Equal entries are not always repeated. Where two headings read alike, the source gives them in different places.
Tests used:
[1] = pKa determination; type: physicochemical; details: cyclic amidine
Protocol: (§1) Cellular Aβ release assays were done in CHO cells stably transfected with human wild‐type and human APP were done as described (Neumann et al, 2015). Determinations of logD, pKa, and binding to brain homogenates were done internally at Novartis, Basel. Plasma protein binding was determined by equilibrium dialysis using diluted plasma from the corresponding species. MDR‐1‐MDCK cells were obtained from Prof. A. Berns, Netherlands Cancer Institute, Amsterdam NL, and bi‐directional transport measurements were done as described (Rueeger et al, 2011). Receptor binding assays were done against an internal receptor panel and externally at Ricerca Biosciences, Peitou, Taiwan. In vitro binding and cellular patch clamp assays for hERG were done at Preclinical Safety, Novartis, Basel.

[2] = tested on: Aβ40 in APOE4‐TR mouse forebrain; assay: Forebrain Aβ40 in APOE4-TR mice; type: in vivo; details: highest dose of 17 mg/kg (30 μmol/kg), 4 h after dosing
Protocol: Data were analyzed with one way ANOVA and Dunnett's multiple comparison test. • B Distribution of APOE4 genotypes in the Phase IIa study versus their baseline Aβ42/40 ratios. The dashed line at Aβ42/40 ratio of 0.09 represents a cutoff, which separates a normal ratio from an abnormally low ratio. • C Comparison of CSF Aβ40 reduction in APOE4 non‐carriers and APOE4 carriers (mean ± SD). • D Comparison of CSFAβ40 reduction in participants with Aβ42/40 ≥ 0.09 and Aβ42/40 < 0.09 (mean ± SD). • E Comparison of Aβ42/40 ratio at baseline and at day 91 for all participants in the placebo, 35 mg, and 85‐mg dose group (mean ± SD, n = 25/group). • F Change of Aβ42/40 ratio for all participants with Aβ42/40 ≤ 0.09 at baseline; bars represent mean ± SD. […] Data were analyzed with one way ANOVA and Dunnett's multiple comparison test. […]
Electrochemiluminescence immunoassays (Mesoscale Diagnostics, Rockville, MD, USA) were used to determine Aβ38, Aβ40, Aβ42, sAPPα, and sAPPβ. For studies in normal mice and rats, the endogenous Aβ40 was extracted from the brain homogenate with 1% Triton X‐100, and the 4G8‐based assay kit was used for quantification according to the manufacturer's instructions. CSF was collected from the cisterna magna and also analyzed using the 4G8 kit. […] For studies in APP23 mice, Aβ40 and Aβ42 were determined after extraction with 70% formic acid and subsequent neutralization.

[3] = clinical; type: in vivo, human; details: for CSF Cmax: ≥ 60 years
Protocol: The lower limit of quantification (LLOQ) was 1 ng/ml in plasma and 2 ng/ml in urine and CSF, except for the 3‐month study where the method for CSF was more sensitive (LLOQ 0.1 ng/ml). Plasma PK parameters were calculated using actual recorded sampling times and non‐compartmental methods with Phoenix WinNonlin version 6.4 (Certara, Inc., Princeton, NJ, USA). […]

[4] = tested on: CSF Aβ40 and sAPPβ; assay: Human CSF APP metabolites after single dose (serial CSF sampling); type: in vivo
Description: We investigated CSF Aβ and sAPPβ levels in humans by serial CSF sampling via an intrathecal catheter. […] Under these conditions, where Aβ production has completely stopped, the curves most likely reflect the rate of physiological clearance of Aβ40 and sAPPβ from human CSF.
(A) Changes in Aβ40 relative to baseline values. (B) Changes in sAPPβ relative to baseline values.
Human CSF was collected from an indwelling spinal catheter inserted into the lower spinal canal (in the single ascending dose (SAD) PD first in human (FIH) study) or by a lumbar puncture (in the multiple ascending dose (MAD) PD Phase I study and Phase IIa study), and by trained personnel at the site and as per their standard operating procedure (SOP). CSF Aβ38, Aβ40, Aβ42, sAPPα, and sAPPβ were quantified in human CSF with 0.2% (v/v) Tween®‐20 using validated sandwich‐based multiplexed electrochemiluminescence methods (MesoScale Discovery, […], MD, USA).

[5] = target: Ghrelin receptor (GHS) (Homo sapiens, UniProt Q92847); assay: Receptor panel binding; details: read-out: Inhibition at 10 µM
Sequence of Ghrelin receptor (GHS) (Q92847 whole entry): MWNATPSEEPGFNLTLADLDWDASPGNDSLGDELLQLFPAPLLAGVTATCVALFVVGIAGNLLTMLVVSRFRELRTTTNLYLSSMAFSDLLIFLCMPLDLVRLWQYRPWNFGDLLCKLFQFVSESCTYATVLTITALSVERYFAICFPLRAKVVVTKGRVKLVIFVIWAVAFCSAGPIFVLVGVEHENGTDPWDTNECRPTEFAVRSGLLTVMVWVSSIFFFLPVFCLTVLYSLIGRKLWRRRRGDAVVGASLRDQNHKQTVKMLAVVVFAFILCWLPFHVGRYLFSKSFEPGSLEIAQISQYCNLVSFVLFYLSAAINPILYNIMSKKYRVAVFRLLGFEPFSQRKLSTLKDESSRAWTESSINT
Protocol: as §1

[6] = tested on: Calcium channel L-type, phenylalkylamine site; assay: Receptor panel binding; design: species or system Rat
Protocol: as §1

[7] = tested on: Imidazoline I2 receptor central; assay: Receptor panel binding; design: species or system Rat
Protocol: as §1

[8] = tested on: Sodium channel, binding site 2; assay: Receptor panel binding; design: species or system Rat
Protocol: as §1

[9] = target: H Nav 1.2 (Homo sapiens, UniProt Q99250); assay: Functional assay; type: biochemical; details: read-out: Inhibition at 10 µM
Sequence of H Nav 1.2 (Q99250 whole entry): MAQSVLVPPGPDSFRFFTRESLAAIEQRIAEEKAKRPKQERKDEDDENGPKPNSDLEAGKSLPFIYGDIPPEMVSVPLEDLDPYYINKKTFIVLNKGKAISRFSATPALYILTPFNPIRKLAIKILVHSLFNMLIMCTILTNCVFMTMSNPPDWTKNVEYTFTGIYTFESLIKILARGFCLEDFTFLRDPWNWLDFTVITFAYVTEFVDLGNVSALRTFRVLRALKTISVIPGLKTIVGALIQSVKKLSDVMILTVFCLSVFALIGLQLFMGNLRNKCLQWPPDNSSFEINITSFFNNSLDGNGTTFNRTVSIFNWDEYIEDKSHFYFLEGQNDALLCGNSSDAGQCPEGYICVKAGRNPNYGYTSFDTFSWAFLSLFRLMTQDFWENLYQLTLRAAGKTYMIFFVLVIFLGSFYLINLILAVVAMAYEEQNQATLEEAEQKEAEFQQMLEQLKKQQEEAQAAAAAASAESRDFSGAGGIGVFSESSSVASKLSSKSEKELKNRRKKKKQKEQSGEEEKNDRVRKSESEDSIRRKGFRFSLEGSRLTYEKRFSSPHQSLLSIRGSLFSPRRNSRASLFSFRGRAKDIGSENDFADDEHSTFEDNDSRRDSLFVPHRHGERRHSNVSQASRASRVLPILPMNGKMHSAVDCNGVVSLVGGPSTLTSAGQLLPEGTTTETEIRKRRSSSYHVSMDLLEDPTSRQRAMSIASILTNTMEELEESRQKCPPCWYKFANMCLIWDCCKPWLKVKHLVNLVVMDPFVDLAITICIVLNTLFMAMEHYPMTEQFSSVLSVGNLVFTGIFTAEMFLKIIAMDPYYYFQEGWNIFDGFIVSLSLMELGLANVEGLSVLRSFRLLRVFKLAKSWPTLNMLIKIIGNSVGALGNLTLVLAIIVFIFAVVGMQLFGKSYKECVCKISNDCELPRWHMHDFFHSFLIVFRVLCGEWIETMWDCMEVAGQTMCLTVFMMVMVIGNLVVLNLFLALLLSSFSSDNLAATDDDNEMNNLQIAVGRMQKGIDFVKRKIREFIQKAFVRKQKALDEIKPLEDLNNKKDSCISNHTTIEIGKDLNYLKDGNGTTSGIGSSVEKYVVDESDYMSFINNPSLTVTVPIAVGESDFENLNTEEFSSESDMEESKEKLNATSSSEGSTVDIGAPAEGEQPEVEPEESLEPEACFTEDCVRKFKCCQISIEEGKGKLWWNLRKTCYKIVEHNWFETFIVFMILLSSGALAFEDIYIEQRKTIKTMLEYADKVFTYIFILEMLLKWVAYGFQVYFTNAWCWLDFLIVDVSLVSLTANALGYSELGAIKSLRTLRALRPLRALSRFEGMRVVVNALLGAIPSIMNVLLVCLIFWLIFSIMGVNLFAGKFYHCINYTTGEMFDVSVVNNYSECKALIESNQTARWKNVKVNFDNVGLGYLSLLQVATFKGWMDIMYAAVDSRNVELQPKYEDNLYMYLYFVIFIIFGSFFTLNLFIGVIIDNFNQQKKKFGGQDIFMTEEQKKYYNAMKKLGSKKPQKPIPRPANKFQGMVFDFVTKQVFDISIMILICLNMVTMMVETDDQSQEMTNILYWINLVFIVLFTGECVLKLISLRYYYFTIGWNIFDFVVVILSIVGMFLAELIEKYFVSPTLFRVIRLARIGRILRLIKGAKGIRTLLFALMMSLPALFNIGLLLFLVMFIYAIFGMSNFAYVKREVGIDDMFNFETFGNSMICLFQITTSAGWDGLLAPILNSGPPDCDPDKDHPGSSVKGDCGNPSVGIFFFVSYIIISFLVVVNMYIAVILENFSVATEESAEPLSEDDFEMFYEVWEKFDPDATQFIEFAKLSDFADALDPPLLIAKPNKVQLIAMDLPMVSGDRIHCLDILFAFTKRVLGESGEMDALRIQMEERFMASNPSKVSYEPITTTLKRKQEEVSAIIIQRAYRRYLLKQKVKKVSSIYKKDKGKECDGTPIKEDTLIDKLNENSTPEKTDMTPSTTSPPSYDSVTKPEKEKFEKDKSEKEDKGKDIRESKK
Protocol: as §1

[10] = target: Monoamine transporter VMAT2 (Rattus norvegicus, UniProt Q01827); assay: Functional assay; type: biochemical; details: read-out: Inhibition at 10 µM
Sequence of Monoamine transporter VMAT2 (Q01827 whole entry): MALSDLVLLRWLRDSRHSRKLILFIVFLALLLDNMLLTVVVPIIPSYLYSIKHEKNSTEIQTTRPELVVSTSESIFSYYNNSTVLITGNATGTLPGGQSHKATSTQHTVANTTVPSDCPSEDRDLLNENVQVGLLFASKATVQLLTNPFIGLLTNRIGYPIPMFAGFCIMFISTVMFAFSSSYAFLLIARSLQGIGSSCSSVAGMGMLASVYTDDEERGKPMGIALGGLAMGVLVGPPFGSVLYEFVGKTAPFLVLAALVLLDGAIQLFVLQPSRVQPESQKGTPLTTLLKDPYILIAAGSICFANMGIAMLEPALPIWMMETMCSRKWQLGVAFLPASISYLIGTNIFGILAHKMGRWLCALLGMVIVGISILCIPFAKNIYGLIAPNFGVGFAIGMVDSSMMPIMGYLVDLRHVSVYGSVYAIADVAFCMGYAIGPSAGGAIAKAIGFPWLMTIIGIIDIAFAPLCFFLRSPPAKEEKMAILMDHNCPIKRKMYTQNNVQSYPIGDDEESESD
Protocol: as §1

[11] = after a 750 mg CNP520 dose, n=6

With `C[C@@]1(c2nc(NC(=O)c3ncc(C(F)(F)F)cc3Cl)ccc2F)CO[C@@](C)(C(F)(F)F)C(N)=N1` [CNP520] the pKa [1] was 7.2, the “reduction in Aβ40” value [2] was 77% and the “CSF conc 24h after dose Day 14” value ([3]; 10 mg q.d., 2 weeks, LLOQ 2 ng/ml in CSF) was “< LLOQ”. For the same molecule, the concentration at 24 h ([3]; both sexes, human, CSF, oral, 2 mg q.d., 3 month study, mean (CV %), read-out: CSF conc 24h after dose Day 91) was 0.305 ng/mL, the concentration at 24 h ([3]; both sexes, human, CSF, oral, 10 mg q.d., 3 month study, mean (CV %), read-out: CSF conc 24h after dose Day 91) was 1.44 ng/mL and the concentration at 24 h ([3]; both sexes, human, CSF, oral, 30 mg q.d., 2 weeks, mean (CV %), read-out: CSF conc 24h after dose Day 14) was 3.33 ng/mL. For the same molecule, the concentration at 24 h ([3]; both sexes, human, CSF, oral, 35 mg q.d., 3 month study, mean (CV %), read-out: CSF conc 24h after dose Day 91) was 4.52 ng/mL, the concentration at 24 h ([3]; both sexes, human, CSF, oral, 85 mg q.d., 3 month study, mean (CV %), read-out: CSF conc 24h after dose Day 91) was 10.4 ng/mL and the concentration at 24 h ([3]; both sexes, human, CSF, oral, 90 mg q.d., 2 weeks, mean (CV %), read-out: CSF conc 24h after dose Day 14) was 9.48 ng/mL. For the same molecule, the concentration at 24 h ([3]; both sexes, human, CSF, oral, 300 mg q.d., 2 weeks, mean (CV %), read-out: CSF conc 24h after dose Day 14) was 29.8 ng/mL, the Cmax ([3]; both sexes, human, CSF, oral, single dose of 750 mg, read-out: CSF mean C max) was 0.0397 µM and the “CSF Cmax” value ([3]; single dose 10 mg, LLOQ 2 ng/ml in CSF) was “< LLOQ”. The “CSF Cmax” value ([3]; single dose 90 mg, mean (CV %)) was 3.33 ( 65.2 ) ng/ml, the “CSF Cmax” value ([3]; single dose 300 mg, mean (CV %)) was 10.5 (49.1) ng/ml and the “CSF Cmax” value ([3]; single dose 750 mg, mean (CV %)) was 20.4 (44.8) ng/ml and 20.4 ng/ml. The “maximum reduction in CSF Aβ40 from baseline” value ([4]; 750-mg single dose, mean ± SD) was 79.1 ± 8.9%, the “first-order rate constant k, Aβ40 in human CSF” value [4, 11] was 0.068 ± 0.002 h⁻¹ and the “first-order rate constant k, sAPPβ in human CSF” value [4, 11] was 0.043 ± 0.004 h⁻¹. The inhibition at 10 µM [5] was 79%, the “inhibition at 10 µM” value [6] was 78% and the “inhibition at 10 µM” value [7] was 61%. The “inhibition at 10 µM” value [8] was 104%, the inhibition at 10 µM [9] was 23.6% and the inhibition at 10 µM [10] was 80%.
